Data published in article PMC10634346 (Cancer Research Communications, 2023).

What was measured:
Type in all cases: cell-based, human
[1] = test system: RNA polymerase II Ser2 phosphorylation (p-Ser2) in SU-DHL-4 cells; assay: In vitro washout, p-Ser2 Western blot, SU-DHL-4; conditions: 1 µmol/L, 4-hour treatment then washout
Method: (§1) Evaluation of the pharmacodynamic extent and duration of CDK9 inhibition were performed in vitro using the human DLBCL cell lines SU-DHL-4 and SU-DHL-10, harboring MYC amplification and MYC overexpression with P57T mutation, respectively. Cells were seeded 18 hours prior to treatment for 4 hours with one of three CDK9 inhibitors, enitociclib (0.25 and1 µmol/L), atuveciclib (1 µmol/L) or KB-0742 (1 µmol/L), cells were washed, and incubation continued until 48 hours posttreatment. Samples were collected before treatment (−4), immediately after treatment (0), and at 1, 2, 4, 8, 12, 16, 24, and 48 hours after washout for RNA sequencing (RNA-seq), qPCR, and Western blotting analyses.
(§2) The levels of p-Ser2, p-Ser5 and total RNA polymerase II, Myc, Mcl-1, cleaved PARP (cPARP), and cleaved Caspase 3 were assessed by Western blotting and quantified near-infrared detection and background corrected quantification of fluorescence intensity on an Odyssey Imaging System with IRDye secondary antibodies (LI-COR Biosciences). For quantification, the protein levels were normalized to GAPDH or HSP90, expressed as a ratio to DMSO or vehicle control at matched timepoints. The normalized relative protein levels of p-Ser2 were used for a treatment effect comparison by performing an ANOVA using PROC MIXED in SAS. The ANOVA model included treatment, timepoints and their interactions as fixed effects. The least square means (LSM), differences between the LSMs and associated P values were generated. The following primary antibodies were used: Rpb1 NTD (D8L4Y) rabbit antibody [Cell Signaling Technology (CST), #14958], anti-RNA polymerase II subunit B1 (phospho CTD Ser-2, clone 3E10) rat antibody (Merck, 04-1571-I), recombinant anti-c-MYC rabbit antibody (Y69; Abcam, #ab32072), MCL1 (D5V5L) rabbit antibody (CST, #39224), cleaved-PARP (Asp214) (E2T4K) mouse antibody (CST, #32563), HSP90 (C45G5) rabbit antibody (CST, #4877), and GAPDH mouse antibody (Zytomed Systems, #ZYT-RGM2-6C5).

[2] = test system: RNA polymerase II Ser2 phosphorylation (p-Ser2) in SU-DHL-10 cells; assay: In vitro washout, p-Ser2 Western blot, SU-DHL-10; conditions: 1 µmol/L, 4-hour treatment then washout
Method: as §1, §2

[3] = test system: MYC mRNA in SU-DHL-10 cells; assay: In vitro washout, MYC mRNA qPCR, SU-DHL-10; conditions: 1 µmol/L 4 h then washout, maintained for up to 16 hours after treatment
Method: (§3) Evaluation of the pharmacodynamic extent and duration of CDK9 inhibition were performed in vitro using the human DLBCL cell lines SU-DHL-4 and SU-DHL-10, harboring MYC amplification and MYC overexpression with P57T mutation, respectively. Cells were seeded 18 hours prior to treatment for 4 hours with one of three CDK9 inhibitors, enitociclib (0.25 and1 µmol/L), atuveciclib (1 µmol/L) or KB-0742 (1 µmol/L), cells were washed, and incubation continued until 48 hours posttreatment. Samples were collected before treatment (−4), immediately after treatment (0), and at 1, 2, 4, 8, 12, 16, 24, and 48 hours after washout for RNA sequencing (RNA-seq), qPCR, and Western blotting analyses. Total RNA was extracted from blood of patients and cell lines using RNeasy Plus Mini Kit (QIAGEN, #74136) and cDNA prepared with the Maxima First Strand cDNA Synthesis Kit for RT-PCR (Thermo Fisher Scientific, K1642) according to manufacturer's instructions. The integrity of purified total RNA was evaluated using an Agilent 2100 Bioanalyzer system and RNA 6000 Nano Kit (Agilent, #5067-1511). Differential gene expression analysis was performed (Fios Genomics) from RNA-seq data (Discovery Life Sciences). MYC and MCL1 mRNA levels were measured by qPCR in vitro and in vivo, using a Taqman qPCR system (Thermo Fisher Scientific), TaqMan Fast Universal PCR Master Mix (2X) no AmpErase (#4352042) and TaqMan probes for MYC (Hs00153408_m1) and MCL1 (Hs03043899_m1). RNA-seq data were analyzed using DESeq2 ([35]).

[4] = test system: MCL1 mRNA in SU-DHL-10 cells; assay: In vitro washout, MCL1 mRNA qPCR, SU-DHL-10; conditions: 1 µmol/L 4 h then washout, maintained for up to 16 hours after treatment
Method: as §3

cPARP in SU-DHL-10 cells = assay: In vitro washout, cPARP Western blot, SU-DHL-10; conditions: 1 µmol/L, 4 h treatment then washout
Method: as §1
(§4) The levels of p-Ser2, p-Ser5 and total RNA polymerase II, Myc, Mcl-1, cleaved PARP (cPARP), and cleaved Caspase 3 were assessed by Western blotting and quantified near-infrared detection and background corrected quantification of fluorescence intensity on an Odyssey Imaging System with IRDye secondary antibodies (LI-COR Biosciences). For quantification, the protein levels were normalized to GAPDH or HSP90, expressed as a ratio to DMSO or vehicle control at matched timepoints. The normalized relative protein levels of p-Ser2 were used for a treatment effect comparison by performing an ANOVA using PROC MIXED in SAS. The ANOVA model included treatment, timepoints and their interactions as fixed effects. […]

[5] = test system: SU-DHL-4 and SU-DHL-10 cell lines; assay: RNA-seq differential gene expression in DLBCL cell lines; conditions: for PHF23 and TP53RK by RNA-seq (in words): 1 µmol/L, 4 hours
Method: as §3, with “([35]). RNA-seq data generated from the analysis of two cell lines treated with the three CDK9 inhibitors was analyzed to investigate the differences in gene expression levels between various posttreatment timepoints and the pretreatment samples. Quality control assessment and exploratory data analysis by principal component analysis (PCA) were done on raw counts and on normalized count data. Normalization of RNA-seq count data was done using trimmed mean of M-values normalization and transformed with voom, resulting in log2 counts per million with associated precision weights. […] Significance values (Padj) were adjusted for multiple testing, by controlling the FDR using the Benjamini–Hochberg procedure. […] RNA-seq data generated from blood samples taken from patients before and after their first dose (C1D1) or after multiple doses, before and after their third dose (C1D15) were analyzed and normalized using the same pipeline as cell lines for comparisons.” for “([35]).”

[6] = test system: Myc and Mcl-1 protein in SU-DHL-4 cells; assay: In vitro washout, Myc and Mcl-1 protein Western blot, SU-DHL-4; conditions: 0.25 µmol/L enitociclib, atuveciclib (1 µmol/L)
Method: as §1, §4

Compound | decrease of p-Ser2 levels [1] [%] | duration of p-Ser2 decrease [1] | p-Ser2 inhibition (in words) [2] | depletion of MYC mRNA levels [3] | depletion of MCL1 mRNA levels [4] | effect on cPARP (in words) (cPARP in SU-DHL-10 cells) | PHF23 and TP53RK by RNA-seq (in words) [5] | MCL1 mRNA by RNA-seq (in words) ([5]; 4 hours treatment, in vitro) | MYC mRNA by RNA-seq (in words) ([5]; 4 hours treatment, in vitro) | sustained Myc and Mcl-1 protein depletion for 48 hours (in words) [6] | ZPF36 by RNA-seq (in words) ([5]; 4 hours treatment, in vitro)
CCC(CC)c1cc(N[C@H]2CC[C@H](N)C2)n2nccc2n1 [KB-0742] | 50 | up to 12 hours | only in the presence of the treatment compound and not after washout | approximately 50% | approximately 50% | no effect | not | upregulated | not statistically significant |  | 
COc1cc(F)ccc1-c1ncnc(Nc2cccc(C[S@](C)(=N)=O)c2)n1 [atuveciclib, reference compound] | ~50 | up to 16 hours | only in the presence of the treatment compound and not after washout | approximately 50% | approximately 50% |  | not | downregulation is observed but not statistically significant | statistically significantly downregulated | this was achieved | significantly downmodulated
